US20100041617A1, “Modulating mxa expression” (priority 2004, published 2010)

Experiments:
Type in all cases: cell-based, human
MxA promoter = experiment: MxA promoter-luciferase reporter screen in stably transfected PC-3M cells; settings: for Fold Increase in MxA Expression: MxA promoter-luciferase reporter in PC-3M cells, Control = 1.00; for expression of luciferase from the MxA promoter: PC-3M cells, DTP 1900 chemotype library screen, FIG. 8
Excerpt: FIG. 7 outlines the high-throughput screen used for identifying small molecules that induce MxA expression. The MxA promoter was cloned upstream of luciferase, and transfected it into PC-3M human prostate carcinoma cells. A cell line that stably expressed this promoter-reporter construct was isolated. This cell line was used for testing whether test agents could induce MxA expression by screening for increased luciferase expression using a library of 1900 chemotypes. Interferon-α was a positive control for this assay. To develop a reporter system for drug screening, particularly for a high throughput assay procedure, the MxA promoter was cloned upstream of a nucleic acid segment that encoded luciferase (see FIG. 7). A nucleic acid encoding a eukaryotic selection marker (neomycin) was also inserted in the vector used for the reporter cassette. After transfecting this construct into human prostate carcinoma cells, a cell line that stably maintained the MxA reporter gene was cloned. Test agents, including a library of small molecules (the DTP 1900 chemotype library) were screened to ascertain whether any of the test agents increased luciferase expression. Of the 1900 compounds tested, 5 compounds activated the MxA promoter and increased luciferase expression. […] Methods similar to those described in Example 4 were used to identify compounds that activate MxA expression.

PC-3M cells = experiment: Cell migration (motility) assay through pores of a PET membrane, PC-3M cells; settings: for motility of PC-3M cells: FIG. 10
Protocol: Effect of MxA on motility of PC-3M. […] It has been reported that type I IFN could reduce cell motility (Brouty-Boyé and Zetter, 1980), one component of metastasis. To test whether PC-3 and PC-3M cells differed in motility, these two cell lines were subjected to a cell migration assay that measured the ability of cells to migrate through pores in a polyethylene terephthalate (PET) membrane. The five compounds that induced luciferase expression from the MxA were then tested to ascertain whether these compounds could also induce MxA protein expression and inhibit motility of PC-3-M prostate cancer cells. Each of the compounds could do so (FIGS. 9 and 10).

MxA protein [1] = experiment: Induction of MxA protein expression in PC-3-M prostate cancer cells by compounds; settings: FIG. 9
Protocol: The five compounds that induced luciferase expression from the MxA were then tested to ascertain whether these compounds could also induce MxA protein expression and inhibit motility of PC-3-M prostate cancer cells. Each of the compounds could do so (FIGS. 9 and 10).

MxA protein [2] = experiment: MxA protein induction by IFN-α, anti-MxA immunostaining, PC-3M cells; settings: 24 hours, 1000 international units of IFN-α per ml, FIG. 2B
Protocol: (§1) PC-3 (Figure A1-4) and PC-3M (FIG. 2B) cells were grown for 24 hours on cover slips in the presence or absence of 1000 international units of IFN-α ml^1. The cells were then fixed, permeabilized, stained with monoclonal anti-MxA and Cy-3-conjugated goat anti-mouse Ig antibody and counterstained with DAPI. Immunofluorescence was visualized with a Zeiss Axiophot microscope with a 40× objective, and the images were captured on an Optronics CCD camera.
(§2) Induction of MxA expression by interferon. To determine whether IFN-α can induce MxA expression in PC-3 and PC-3M cells, cells were treated with recombinant IFN-α and subjected to immunohistochemical analysis using anti-MxA antibody and DAPI nuclear counterstaining to locate individual cells (FIG. 2). Consistent with the western blot result, this assay detected MxA protein only in untreated PC-3 and not in untreated PC-3M cells (compare upper left panels in FIGS. 2A and 2B). […] Western blotting (not shown) confirmed the IFN did induce increased MxA protein expression in both cell lines.

MxA protein [3] = experiment: MxA protein induction by IFN-α, anti-MxA immunostaining, PC-3 cells; settings: 24 hours, 1000 international units of IFN-α per ml, FIG. 2A
Protocol: as §1, §2

PC-3 cells = experiment: Cell migration (motility) assay through pores of a PET membrane, PC-3 cells; settings: 1000 IU ml^−1 IFN-α, FIG. 3A
Excerpt: FIG. 3A graphically illustrates the motility of PC-3M and PC-3 cells, before and after exposure to 1000 IU ml^−1 IFN-α. Mean values of percent of control PC-3M mobility are shown as bar graphs with mean percentages indicated above each bar. Each value represents the mean of two independent triplicate determinations. Error bars show range of determinations.
Effect of MxA on motility of PC-3M. […] It has been reported that type I IFN could reduce cell motility (Brouty-Boyé and Zetter, 1980), one component of metastasis. To test whether PC-3 and PC-3M cells differed in motility, these two cell lines were subjected to a cell migration assay that measured the ability of cells to migrate through pores in a polyethylene terephthalate (PET) membrane.

Row | Molecule | Fold Increase in MxA Expression (MxA promoter) | also measured
1 | CCCS(=O)(=O)Nc1ccc(Nc2c3ccccc3nc3ccccc23)c(OC)c1.CS(=O)(=O)O [Compound 6] | 3.65 fold | –
2 | O=c1c2cc(O)ccc2n2nnc3ccc(NCCNCCO)c1c32 [Compound 19] | 2.08 fold | –
3 | O=[N+]([O-])c1ccc(N2N=C(c3ccc4ccccc4c3O)CC2c2ccc(Cl)cc2Cl)c([N+](=O)[O-])c1 (stereo not drawn) [Compound 27] | 2.25 fold | –
4 | CS(=O)(=O)CS(=O)(=O)OCCCl [Compound 11] | 1.11 fold | –
5 | CO[C@H]1[C@H](O)[C@@H](O)[C@H](n2c3c(Cl)cccc3c3c4c(c5c6cccc(Cl)c6[nH]c5c32)C(=O)NC4=O)O[C@@H]1CO [Compound 12] | 1.46 fold | –
6 | O=C(O)c1ccc(Oc2nc3ccccc3s2)cc1 [NSC 122335, 4-(benzothiazol-2-yloxy)-benzoic acid] | – | motility of PC-3M cells (PC-3M cells): decrease the motility; induction of MxA protein expression (MxA protein [1]): induce expression of MxA protein; expression of luciferase from the MxA promoter (MxA promoter): induce expression of luciferase
7 | Cc1ccc2c(c1)C=CC1(O2)N(c2ccccc2)C(=S)OC1(C)C (stereo not drawn) [Compound 30] | 0.85 fold | –
8 | O=C1CC(=O)NC(=NN2C(=O)CSC2c2ccc(Cl)cc2)N1 (stereo not drawn) [Compound 28] | 1.40 fold | –
9 | COC1C(O)C(C)OC(OC2C(Oc3cccc4c(O)c5c(=O)oc6ccc(C)c7c(=O)oc(c34)c5c67)OC(C)C3O[C@H](c4ccccc4)OC32)C1O (stereo partly drawn) [Compound 16] | 2.25 fold | –
10 | CCOC(=O)c1cccc(NC(=O)CBr)c1 [Compound 34] | 0.27 fold | –
11 | COc1cc(C2C(Cl)C(=O)N2NC(=O)c2ccc(N)cc2)cc(Br)c1O (stereo not drawn) [Compound 21] | 1.64 fold | –
12 | CC(C)(Oc1ccc(Cl)cc1)C(=O)N(C(=O)N1CCCCC1)c1ccccc1 [Compound 29] | 1.03 fold | –
13 | COC1C(O)C(C)OC(CCOC2C(Oc3cccc4c(O)c5c(=O)oc6ccc(C)c7c(=O)oc(c34)c5c67)OC(C)C(O)C2O)C1O (stereo not drawn) [NSC 5159, 10-{3-[2-(3,5-Dihydroxy-4-methoxy-6-methyl-tetrahydro-pyran-2-yl)-ethoxy]-4,5-dihydroxy-6-methyl-tetrahydro-pyran-2-yloxy}-6-hydroxy-1 methyl-benzo[h]chromeno[5,4,3-cde]chromene-5,12-dione] | – | motility of PC-3M cells (PC-3M cells): decrease the motility; induction of MxA protein expression (MxA protein [1]): induce expression of MxA protein; expression of luciferase from the MxA promoter (MxA promoter): induce expression of luciferase
14 | IFN-α | – | PC-3M cell motility (PC-3M cells; 1000 IU ml^−1 IFN-α, FIG. 3A): reduced PC-3M cell motility to a level comparable to that of PC-3 cells; level of MxA protein after exposure to IFN-α (MxA protein [2]): became detectable for the first time; level of MxA protein after exposure to IFN-α (MxA protein [3]): increased substantially; PC-3 cell motility (PC-3 cells): reduced its motility to levels below that seen when no IFN was present
15 | CCN(CC)CCNc1ccc2nnn3c4ccc(OC(C)=O)cc4c(=O)c1c23 [Compound 32] | 2.64 fold | –
16 | Cc1c(C(=O)/C=C/c2c(Cl)cccc2Cl)c(=O)n(-c2ccccc2)n1C [Compound 22] | 0.32 fold | –
17 | Cc1cc(Cc2cc(C)c(N)cc2N)c(N)cc1N [NSC 7215, methylene-bis(2,4-amino-5-methyl-benzene)] | – | motility of PC-3M cells (PC-3M cells): decrease the motility; induction of MxA protein expression (MxA protein [1]): induce expression of MxA protein; expression of luciferase from the MxA promoter (MxA promoter): induce expression of luciferase
18 | O=[N+]([O-])c1ccc(Nc2nc3ccccc3s2)cc1 [NSC 34444, benzothiazol-2-yl-(4-nitro-phenyl)-amine] | – | expression of luciferase from the MxA promoter (MxA promoter): induce expression of luciferase
19 | COC1CC(C)C(OC)c2cc(O)cc(c2O)NC(=O)/C(C)=C\C=C/C(C)C(OC(N)=O)/C(C)=C\C(C)C1OC (stereo not drawn) [Compound 10] | 0.40 fold | –

Row | Molecule | Fold Increase in MxA Expression (MxA promoter) | also measured
20 | Cc1cccc(NC(=O)C(=O)C(C2OC(=O)c3ccccc32)[N+](=O)[O-])c1C (stereo not drawn) [Compound 18] | 0.79 fold | –
21 | C=CC[C@H]1[C@H](O[Si](C)(C)C(C)(C)C)C=CC(=O)[C@@H]1CC(=O)OCC [Compound 35] | 0.68 fold | –
22 | CCOC(=O)[C@@H]1ON2O[C@H](OC3CCCCC3c3ccccc3)C[C@H]3OC(=O)[C@@H]1C32 (stereo partly drawn) [Compound 33] | 1.03 fold | –
23 | C=[N+](CNC(=O)CNC(=O)C(Cc1ccc([N+](=O)[O-])cc1)NC(=O)OC(C)(C)C)C(=O)CNC(=O)C(Cc1ccc([N+](=O)[O-])cc1)NC(=O)OC(C)(C)C (stereo not drawn) [Compound 24] | 0.84 fold | –
24 | CCN(CC)CCCNc1nccc2c(C)c3[nH]c4ccncc4c(=O)c3cc12 [Compound 15] | 2.15 fold | –
25 | O=S(=O)(c1cccc(N=C=S)c1)c1cccc(N=C=S)c1 [Compound 3] | 1.11 fold | –
26 | Cc1cc(=O)oc2cc(OC(=O)Nc3ccc(Cl)c(Cl)c3)ccc12 [Compound 7] | 1.18 fold | –
27 | CN(CCCn1ccnc1[N+](=O)[O-])CCCn1ccnc1[N+](=O)[O-] [Compound 23] | 1.28 fold | –
28 | COc1cc2c3c(n(C)c(=O)c2cc1OC)-c1cc2c(cc1C3=O)OCO2 [Compound 8] | 1.71 fold | –
29 | CC(C)CCc1c(Cl)nc(Cl)nc1Cl [Compound 2] | 1.03 fold | –
30 | COc1cc2c(cc1OC)C1C(=O)c3cc(OS(C)(=O)=O)c(OC)cc3C1N(C)C2=O (stereo not drawn) [Compound 13] | 2.15 fold | –
31 | CC(=O)C1=C(N=[N+]=[N-])c2cccc3cccc(c23)C1=O [Compound 26] | 0.95 fold | –
32 | COc1ccc2cc(COCCC(=O)O)ccc2c1 [NSC 46669, 3-(6-Methoxy-naphthalen-2-ylmethoxy)-propionic acid] | – | motility of PC-3M cells (PC-3M cells): decrease the motility; induction of MxA protein expression (MxA protein [1]): induce expression of MxA protein; expression of luciferase from the MxA promoter (MxA promoter): induce expression of luciferase
33 | CN1CCN(CCNc2ccc(CO)c3sc4ccccc4c(=O)c23)CC1 [Compound 4] | 1.32 fold | –
34 | N/N=C(/C(=O)Nc1cccc(Cl)c1)C(C(=O)c1ccc(O)cc1O)C1OC(=O)c2ccccc21 (stereo not drawn) [Compound 17] | 1.05 fold | –
35 | CC1(C)OC(=S)N(c2ccccc2)C12C=Cc1cc3ccccc3cc1O2 (stereo not drawn) [Compound 31] | 0.91 fold | –
36 | O=C1C(=C(C(=O)c2ccccc2)C(=O)c2ccccc2)OC(c2ccccc2)=C1C(=O)c1ccccc1 [Compound 36] | 1.62 fold | –
37 | COc1cc(C2C(Cl)C(=O)N2NC(=O)c2ccc(N)cc2)ccc1O (stereo not drawn) [Compound 20] | 1.37 fold | –
